Assay results reported in patent publication US8618167B2, “Methods of attenuating cognitive deficits with sulfonyl fluorides” (priority 2001, dated 2013).

What was measured:
[1] = target: acetylcholinesterase in comparison to butyrylcholinesterase (Homo sapiens, UniProt P22303); settings: cited from earlier work
[2] = tested on: ischemia-induced loss of hippocampal pyramidal cells and acetylcholine; settings: pretreatment; cited from earlier work
[3] = tested on: ischemic (MCAo) Sprague-Dawley rats; test: Elevated body swing test (EBST), motor asymmetry after MCAo; type: in vivo, rat; settings: 4 wks after MCAo, MSF 1 mg/kg at 24 and 48 hrs then 0.3 mg/kg every other day i.p., mean±S.E.M., vehicle 84.8±10, p>0.05
brain AChE = target: T1, brain AChE (Rattus norvegicus, UniProt P37136); settings: cited from earlier work
T1 sequence (P37136 32-614): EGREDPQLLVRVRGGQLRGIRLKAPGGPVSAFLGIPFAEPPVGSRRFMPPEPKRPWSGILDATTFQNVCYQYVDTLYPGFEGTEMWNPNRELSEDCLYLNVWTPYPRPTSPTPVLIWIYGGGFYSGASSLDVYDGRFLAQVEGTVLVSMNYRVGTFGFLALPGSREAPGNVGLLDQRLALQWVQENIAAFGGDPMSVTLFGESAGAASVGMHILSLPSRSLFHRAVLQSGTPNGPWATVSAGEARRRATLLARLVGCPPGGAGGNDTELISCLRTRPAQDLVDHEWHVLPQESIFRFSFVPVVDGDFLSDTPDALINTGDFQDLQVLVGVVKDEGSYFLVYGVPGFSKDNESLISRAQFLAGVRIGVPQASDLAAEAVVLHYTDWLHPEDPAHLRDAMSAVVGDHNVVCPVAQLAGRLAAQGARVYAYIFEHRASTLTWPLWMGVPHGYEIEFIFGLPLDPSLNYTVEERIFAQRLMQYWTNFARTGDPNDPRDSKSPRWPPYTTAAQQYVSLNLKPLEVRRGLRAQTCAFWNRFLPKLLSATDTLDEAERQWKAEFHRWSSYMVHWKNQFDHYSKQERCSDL

acetylcholinesterase = target: T2, acetylcholinesterase (Rattus norvegicus, UniProt P37136); test: Control acetylcholinesterase assays of brain after MSF treatment (Ellman spectrophotometric method); type: in vivo; settings: same regimen; dissected brain part
T2 construct: from tissue; host or cells: rat brain (whole brain, hippocampus, cortex, striatum/nucleus accumbens)
T2 sequence (P37136 32-614): T1 sequence (P37136 32-614)
Procedure: Control Acetylcholinesterase Assays. Two additional groups of normal control (non-ischemic) rats were treated with MSF (N=4) or peanut oil vehicle (N=4) in accordance with the exact procedures used with the other groups in order to estimate the level of acetylcholinesterase inhibition produced. At the end of the study, the rats were sacrificed and acetylcholinesterase assays were conducted at 25° C. according to the spectrophotometric method (Ellman et al., 1961) with minor modifications (pH set at 7.4 and using 1 mM acetyl-β-methyl-thiocholine iodide as substrate).
Drugs. For study 1, animals received ip injections of either MSF (1 mg/kg at 24 and 48 hrs post-MCAo and 0.3 mg/kg thereafter every other day) or the vehicle, peanut oil, for four weeks. Each animal received 0.5 ml of the solution. For study 2, animals received 1 mg/kg at 24 and 48 hrs post-MCAo and 0, 0.15, 0.30 or 0.6 mg/kg of MSF in peanut oil using the same regimen mentioned above. For study 3, animals were introduced to the same regimen as in study 1, but thereafter received peanut oil every other day from four weeks up to eight weeks post-MCAo.

[4] = tested on: septal ChAT immunoreactivity; test: Choline acetyltransferase (ChAT) immunohistochemistry of the septum; type: in vivo, rat
Procedure: Choline Acetyltransferase (ChAT) Immunohistochemistry. Following the behavioral test at 4 wks post-ischemia, randomly selected animals (n=4 per group) were deeply anesthetized and perfused intracardially with 150 ml saline followed by 150 ml of 4% paraformaldehyde. The brains were post-fixed overnight in 4% paraformaldehyde and subsequently immersed in 20% sucrose in 4% paraformaldehyde and stored at 8° C. until sectioning. A vibratome (Vibroslice, Fla.) was used to cut the brain (40 μm sections). Ten serial brain sections that included the septal region (+1.4 to +0.2 mm from the bregma) were processed for ChAT immunohistochemistry. Sections were pre-incubated in 5% blocking serum (normal goat, Jackson ImmunoResearch Laboratories, PA) in 0.1% Triton-X in 0.1 M NaPBS for 60 min, followed by incubation in the primary ChAT antibody (Boehringer Mannheim Biochemical, IN; 1:10 dilution in 0.1 M phosphate-buffered saline, NaPBS) at room temperature overnight. The sections were reacted with the appropriate biotinylated secondary antibody (1:2000) for 45 min, followed by an avidin-biotin-peroxidase complex system (ABC Elite Vectastain Kit, Vector, Burlingame, Calif.) for 45 min. Finally, the Vector VIP Kit (Vector, Burlingame, Calif.) was used to visualize the reaction product. The sections were mounted on gelatin-coated glass slides, dried overnight, dehydrated in increasing alcohol concentrations, and cover-slipped using Permount (Fisher Scientific, Pittsburgh, Pa.) mounting solution. Serial sections were digitized using a PC-based Image Tools computer program. To determine the ChAT alterations in the septum, comparisons of mean total number (average counts from ten brain sections per animal) of septal ChAT-immunoreactive (ir) neurons from MSF- and vehicle-treated ischemic animals were conducted. Individual counts of ChAT-ir neurons were made using the following criteria: heavily stained nuclei (HN), pale stained nuclei (PN) and presence of elaborate processes (P). […] In addition, a 5-point semi-quantitative scale was used to assess the intensity of ChAT immunoreactivity. […]

[5] = tested on: ischemic (MCAo) Sprague-Dawley rats; test: Step-down passive avoidance test after MCAo; type: in vivo, rat
Text: Experimental Protocol. A total of 48 eight-week-old, male, Sprague-Dawley rats weighing about 250 g served as subjects in the present study. All animals were free of virus antibody. A 3-day acclimation period was allowed prior to using the animals. Animals were kept under a 12-12 hr light/dark cycle and allowed free access to food and water before and after surgical procedures. All experimental procedures followed UTEP IACUC guidelines for use of animals in research to minimize discomfort in the animals during surgery and in the recovery period. […] In study one (n=24), the 0.3 mg/kg dose of MSF, which was previously reported as efficacious in ameliorating cognitive deficits in animals, was used to initially provide the putative drug's effects on ischemic animals. Studies two (dose response effects of MSF; n=16) and three (withdrawal of MSF; n=8) were conducted to further characterize the direct neurobehavioral effects of MSF. […]
The passive avoidance test followed the procedures described in detail elsewhere (Borlongan et al., 1998a; 1998b). […] Acquisition of the task was measured in terms of the amount of time it took the rat to remain on the platform continuously for 3 min. Twenty four hrs later, a retention test was conducted by placing the rat on the platform exactly as before and recording the latency to step-down measured to a maximum of 3 min. […]

[6] = tested on: ischemic (MCAo) Sprague-Dawley rats; settings: rat, in vivo
[7] = tested on: middle-aged and older rats; settings: chronic MSF treatment; cited from earlier work
[8] = tested on: brain acetylcholinesterase; settings: cited from earlier work
SDAT patients = settings: cited from earlier work
[9] = chronic MSF 0.22 mg/kg three times per week
[10] = single systemic injection of 1.5 mg/kg MSF

acetylcholinesterase in comparison to butyrylcholinesterase, sequence (P22303 32-614): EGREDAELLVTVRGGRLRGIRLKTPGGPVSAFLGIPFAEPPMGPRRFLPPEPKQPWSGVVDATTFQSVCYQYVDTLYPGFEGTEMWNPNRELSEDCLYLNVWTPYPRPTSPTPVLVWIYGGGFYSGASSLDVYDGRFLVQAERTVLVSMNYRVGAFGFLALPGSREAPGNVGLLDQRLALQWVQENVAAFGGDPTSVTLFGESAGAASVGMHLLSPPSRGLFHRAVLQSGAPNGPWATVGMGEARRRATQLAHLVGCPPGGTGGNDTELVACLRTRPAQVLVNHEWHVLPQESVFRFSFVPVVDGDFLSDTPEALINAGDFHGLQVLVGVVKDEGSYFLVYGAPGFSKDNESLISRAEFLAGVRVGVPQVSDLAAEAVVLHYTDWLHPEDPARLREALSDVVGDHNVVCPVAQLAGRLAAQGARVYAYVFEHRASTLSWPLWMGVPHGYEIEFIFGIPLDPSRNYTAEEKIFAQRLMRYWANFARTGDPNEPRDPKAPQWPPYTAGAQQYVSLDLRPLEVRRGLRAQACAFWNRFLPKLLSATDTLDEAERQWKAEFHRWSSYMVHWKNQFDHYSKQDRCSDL

COP(=O)(OC)C(O)C(Cl)(Cl)Cl (stereo not drawn) [metrifonate, reference compound]
selectivity as inhibitor of acetylcholinesterase in comparison to butyrylcholinesterase [1]: do not show this high degree of selectivity

CCN(C)C(=O)Oc1cccc([C@H](C)N(C)C)c1 [ENA-173]
levels of hippocampal acetylcholine and ischemia-induced loss of hippocampal pyramidal cells [2]: preserve the levels of hippocampal acetylcholine and to protect against ischemia-induced loss of pyramidal cells

CS(=O)(=O)F [MSF, Methanesulfonyl fluoride]
selectivity as inhibitor of acetylcholinesterase in comparison to butyrylcholinesterase [1]: high selectivity
biased swing activity (EBST) [3]: 87.7±8%
decrement in brain AChE activity (brain AChE; [9]): about 50%
liver damage (brain AChE; [9]): no liver damage
locomotor side effects (brain AChE; [9]): without discernable locomotor side effects
behavioral alterations (brain AChE; [10]): no observable behavioral alterations
reduction of brain AChE activity (brain AChE; [10]): 70%
acetylcholinesterase inhibition in cortex (acetylcholinesterase): 85.9%
acetylcholinesterase inhibition in hippocampus (acetylcholinesterase): 88.5%
acetylcholinesterase inhibition in striatum/nucleus accumbens (acetylcholinesterase): 95.0%
intensity of staining of ChAT-ir neurons in lateral and medial septum ([4]; compared to vehicle-treated ischemic animals): more intense staining of ChAT-ir neurons
increment in mean total number of HN+P ChAT-ir cells vs vehicle-treated ischemic animals ([4]; septum, 4 wks post-ischemia, heavily stained nuclei with processes, p<0.05): 10%-15%
increment in mean total number of HN ChAT-ir cells vs vehicle-treated ischemic animals ([4]; septum, 4 wks post-ischemia, heavily stained nuclei, p<0.05): 10%-15%
passive avoidance: time to acquire the task ([5]; 4 wks after MCAo, same regimen, mean±S.E.M., vehicle 398±62, p<0.05): 255 ± 36 s
passive avoidance: retention of the task (step down latency) ([5]; retention test 24 hrs after acquisition, max 3 min, vehicle 79±26, p<0.05): 145 ± 18 s
ischemia-induced apoptotic cell death [6]: did not block ischemia-induced apoptotic cell death
mean volume of infarcted tissue [6]: 78.1±14.2 mm^3
acquisition of one-trial per day discriminative reward learning task [7]: enhance the acquisition
toxicity at accumulated brain acetylcholinesterase inhibition ([8]; at up to 80-90% brain inhibition): without toxicity
inhibition of brain acetylcholinesterase that can be accumulated ([8]; relatively small doses over a long period of time, minimum inhibition of peripheral enzyme): 80-90%
persistence of cognition-enhancing effects after withdrawal (SDAT patients; SDAT patients): persisted up to eight weeks after withdrawal of the drug
cognitive performance of SDAT patients (SDAT patients; double-blind, placebo-controlled study): significant clinical improvements
